In the NIST ThermoML archive (doi:10.1016/j.jct.2016.04.014):

Settings: Liquid, Vibrating tube method

CCCCCCCC [octane]
Settings	mass density [kg/m3]
288.15 K, 100 kPa	706.5
288.15 K, 1000 kPa	707.2
288.15 K, 5000 kPa	710.3
288.15 K, 10000 kPa	714.1
288.15 K, 15000 kPa	717.7
288.15 K, 20000 kPa	721.2
288.15 K, 25000 kPa	724.5
288.15 K, 30000 kPa	727.7
288.15 K, 35000 kPa	730.8
288.15 K, 40000 kPa	733.7
288.15 K, 45000 kPa	736.5
288.15 K, 50000 kPa	739.2
288.15 K, 55000 kPa	741.7
288.15 K, 60000 kPa	744.1
293.15 K, 100 kPa	702.5
293.15 K, 101 kPa	702.58
293.15 K, 1000 kPa	703.2
293.15 K, 5000 kPa	706.4
293.15 K, 10000 kPa	710.3
293.15 K, 15000 kPa	714
293.15 K, 20000 kPa	717.6
293.15 K, 25000 kPa	721
293.15 K, 30000 kPa	724.3
293.15 K, 35000 kPa	727.5
293.15 K, 40000 kPa	730.5
293.15 K, 45000 kPa	733.3
293.15 K, 50000 kPa	736
293.15 K, 55000 kPa	738.6
293.15 K, 60000 kPa	741
298.15 K, 100 kPa	698.5
298.15 K, 1000 kPa	699.2
298.15 K, 5000 kPa	702.5
298.15 K, 10000 kPa	706.5
298.15 K, 15000 kPa	710.3
298.15 K, 20000 kPa	714
298.15 K, 25000 kPa	717.6
298.15 K, 30000 kPa	720.9
298.15 K, 35000 kPa	724.1
298.15 K, 40000 kPa	727.2
298.15 K, 45000 kPa	730.1
298.15 K, 50000 kPa	732.9
298.15 K, 55000 kPa	735.5
298.15 K, 60000 kPa	738
303.15 K, 100 kPa	694.4
303.15 K, 101 kPa	694.48
303.15 K, 1000 kPa	695.2
303.15 K, 5000 kPa	698.6
303.15 K, 10000 kPa	702.7
303.15 K, 15000 kPa	706.7
303.15 K, 20000 kPa	710.5
303.15 K, 25000 kPa	714.1
303.15 K, 30000 kPa	717.5
303.15 K, 35000 kPa	720.9
303.15 K, 40000 kPa	724
303.15 K, 45000 kPa	727
303.15 K, 50000 kPa	729.8
303.15 K, 55000 kPa	732.5
303.15 K, 60000 kPa	735
308.15 K, 100 kPa	690.4
308.15 K, 1000 kPa	691.2
308.15 K, 5000 kPa	694.7
308.15 K, 10000 kPa	698.9
308.15 K, 15000 kPa	703
308.15 K, 20000 kPa	706.9
308.15 K, 25000 kPa	710.6
308.15 K, 30000 kPa	714.2
308.15 K, 35000 kPa	717.5
308.15 K, 40000 kPa	720.8
308.15 K, 45000 kPa	723.8
308.15 K, 50000 kPa	726.7
308.15 K, 55000 kPa	729.4
308.15 K, 60000 kPa	731.9
313.15 K, 100 kPa	686.3
313.15 K, 101 kPa	686.32
313.15 K, 1000 kPa	687.1
313.15 K, 5000 kPa	690.8
313.15 K, 10000 kPa	695.1
313.15 K, 15000 kPa	699.3
313.15 K, 20000 kPa	703.3
313.15 K, 25000 kPa	707.2
313.15 K, 30000 kPa	710.8
313.15 K, 35000 kPa	714.3
313.15 K, 40000 kPa	717.6
313.15 K, 45000 kPa	720.7
313.15 K, 50000 kPa	723.6
313.15 K, 55000 kPa	726.3
313.15 K, 60000 kPa	728.9
318.15 K, 100 kPa	682.2
318.15 K, 1000 kPa	683
318.15 K, 5000 kPa	686.8
318.15 K, 10000 kPa	691.3
318.15 K, 15000 kPa	695.6
318.15 K, 20000 kPa	699.7
318.15 K, 25000 kPa	703.6
318.15 K, 30000 kPa	707.4
318.15 K, 35000 kPa	711
318.15 K, 40000 kPa	714.3
318.15 K, 45000 kPa	717.5
318.15 K, 50000 kPa	720.5
318.15 K, 55000 kPa	723.3
318.15 K, 60000 kPa	725.9
323.15 K, 100 kPa	678
323.15 K, 101 kPa	678.09
323.15 K, 1000 kPa	678.9
323.15 K, 5000 kPa	682.8
323.15 K, 10000 kPa	687.4
323.15 K, 15000 kPa	691.9
323.15 K, 20000 kPa	696.1
323.15 K, 25000 kPa	700.2
323.15 K, 30000 kPa	704
323.15 K, 35000 kPa	707.7
323.15 K, 40000 kPa	711.1
323.15 K, 45000 kPa	714.4
323.15 K, 50000 kPa	717.4
323.15 K, 55000 kPa	720.3
323.15 K, 60000 kPa	722.9
328.15 K, 100 kPa	673.8
328.15 K, 1000 kPa	674.7
328.15 K, 5000 kPa	678.7
328.15 K, 10000 kPa	683.5
328.15 K, 15000 kPa	688.1
328.15 K, 20000 kPa	692.5
328.15 K, 25000 kPa	696.7
328.15 K, 30000 kPa	700.7
328.15 K, 35000 kPa	704.4
328.15 K, 40000 kPa	707.9
328.15 K, 45000 kPa	711.3
328.15 K, 50000 kPa	714.4
328.15 K, 55000 kPa	717.3
328.15 K, 60000 kPa	719.9
333.15 K, 100 kPa	669.7
333.15 K, 1000 kPa	670.6
333.15 K, 5000 kPa	674.8
333.15 K, 10000 kPa	679.7
333.15 K, 15000 kPa	684.5
333.15 K, 20000 kPa	689
333.15 K, 25000 kPa	693.2
333.15 K, 30000 kPa	697.3
333.15 K, 35000 kPa	701.1
333.15 K, 40000 kPa	704.7
333.15 K, 45000 kPa	708.1
333.15 K, 50000 kPa	711.3
333.15 K, 55000 kPa	714.2
333.15 K, 60000 kPa	716.9
343.15 K, 100 kPa	661.2
343.15 K, 1000 kPa	662.2
343.15 K, 5000 kPa	666.6
343.15 K, 10000 kPa	671.9
343.15 K, 15000 kPa	677
343.15 K, 20000 kPa	681.8
343.15 K, 25000 kPa	686.3
343.15 K, 30000 kPa	690.6
343.15 K, 35000 kPa	694.6
343.15 K, 40000 kPa	698.4
343.15 K, 45000 kPa	701.9
343.15 K, 50000 kPa	705.2
343.15 K, 55000 kPa	708.2
343.15 K, 60000 kPa	711
353.15 K, 100 kPa	652.6
353.15 K, 1000 kPa	653.7
353.15 K, 5000 kPa	658.4
353.15 K, 10000 kPa	664.1
353.15 K, 15000 kPa	669.4
353.15 K, 20000 kPa	674.5
353.15 K, 25000 kPa	679.3
353.15 K, 30000 kPa	683.9
353.15 K, 35000 kPa	688.1
353.15 K, 40000 kPa	692.1
353.15 K, 45000 kPa	695.7
353.15 K, 50000 kPa	699.1
353.15 K, 55000 kPa	702.3
353.15 K, 60000 kPa	705.1
363.15 K, 100 kPa	643.8
363.15 K, 1000 kPa	645
363.15 K, 5000 kPa	650.1
363.15 K, 10000 kPa	656.1
363.15 K, 15000 kPa	661.9
363.15 K, 20000 kPa	667.3
363.15 K, 25000 kPa	672.4
363.15 K, 30000 kPa	677.2
363.15 K, 35000 kPa	681.6
363.15 K, 40000 kPa	685.8
363.15 K, 45000 kPa	689.6
363.15 K, 50000 kPa	693.1
363.15 K, 55000 kPa	696.3
363.15 K, 60000 kPa	699.2
373.15 K, 100 kPa	634.7
373.15 K, 1000 kPa	636.3
373.15 K, 5000 kPa	641.8
373.15 K, 10000 kPa	648.2
373.15 K, 15000 kPa	654.4
373.15 K, 20000 kPa	660.1
373.15 K, 25000 kPa	665.5
373.15 K, 30000 kPa	670.6
373.15 K, 35000 kPa	675.3
373.15 K, 40000 kPa	679.6
373.15 K, 45000 kPa	683.6
373.15 K, 50000 kPa	687.3
373.15 K, 55000 kPa	690.5
373.15 K, 60000 kPa	693.5
393.15 K, 100 kPa	616.3
393.15 K, 1000 kPa	618.1
393.15 K, 5000 kPa	624.3
393.15 K, 10000 kPa	631.8
393.15 K, 15000 kPa	638.8
393.15 K, 20000 kPa	645.3
393.15 K, 25000 kPa	651.5
393.15 K, 30000 kPa	657.1
393.15 K, 35000 kPa	662.3
393.15 K, 40000 kPa	667.1
393.15 K, 45000 kPa	671.4
393.15 K, 50000 kPa	675.3
393.15 K, 55000 kPa	678.8
393.15 K, 60000 kPa	681.8
413.15 K, 1000 kPa	599.3
413.15 K, 5000 kPa	606.6
413.15 K, 10000 kPa	615.1
413.15 K, 15000 kPa	623.1
413.15 K, 20000 kPa	630.6
413.15 K, 25000 kPa	637.4
413.15 K, 30000 kPa	643.8
413.15 K, 35000 kPa	649.6
413.15 K, 40000 kPa	654.8
413.15 K, 45000 kPa	659.5
413.15 K, 50000 kPa	663.6
413.15 K, 55000 kPa	667.2
413.15 K, 60000 kPa	670.2
